SMILES strings stand for the structures. Where a name gives a salt, the structure may show the parent alone.

In this assay the target is human BACE-1 (Homo sapiens, UniProt P56817). Description: CEREP BACE Inhibition Assay. Format: biochemical. Conditions: recombinant enzyme; for inhibition at 1 µM: read-out: % Inhibition @ 1.0 μM; for IC50: read-out: IC50. The method, then: More specifically the assay, run at 50 μL in a 96 well plate, evaluated the effect of test compound on the activity of the human BACE-1 quantified by measuring the formation of Mca-S-E-V-N-L-NH2 from […], using a recombinant enzyme. The test compound, reference compound or water (control) were added to a buffer containing 0.09 M sodium acetate (pH 4.5) and 0.25 μg BACE-1. Compound interference with the fluorimetric detection method due to autofluorescence was then checked by measurements at the wavelengths defined to evaluate the enzyme activity. […] For control basal measurement, the substrate was omitted from the reaction mixture. […] The standard inhibitory reference compound was OM99-2, which was tested in each experiment at several concentrations to obtain an inhibition curve from which its IC50 value was calculated.

Where [1] appears, read: 1.0 μM, percent inhibition of the control activity.
The mark [2] stands for this setting: percent inhibition of the control activity.

Sequence of human BACE-1 (P56817 46-501): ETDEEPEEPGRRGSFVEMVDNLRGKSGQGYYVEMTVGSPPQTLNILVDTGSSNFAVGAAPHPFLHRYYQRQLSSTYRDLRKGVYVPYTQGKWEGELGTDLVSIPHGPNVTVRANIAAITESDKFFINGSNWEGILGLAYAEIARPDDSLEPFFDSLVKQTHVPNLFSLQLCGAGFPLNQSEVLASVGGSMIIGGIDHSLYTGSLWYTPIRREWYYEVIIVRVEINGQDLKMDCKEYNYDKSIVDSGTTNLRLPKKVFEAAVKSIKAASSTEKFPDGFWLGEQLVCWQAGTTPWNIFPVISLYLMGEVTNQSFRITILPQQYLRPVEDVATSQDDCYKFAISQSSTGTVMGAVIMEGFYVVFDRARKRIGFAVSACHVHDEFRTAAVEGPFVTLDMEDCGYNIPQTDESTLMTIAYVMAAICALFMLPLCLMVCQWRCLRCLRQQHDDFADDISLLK

In general, inhibition refers to the relative decrease from the control value, in per cent. For orientation: IC50 means the concentration needed to halve the response being measured. Take `C[C@H](CO)N(C)CCC[C@@H](C1CCCCC1)N1Cc2cc(Oc3ccccc3)ncc2N=C1N` [Compound 184]: the IC50 is 2300 nM. Also, the inhibition at 1 µM under setting [1] was 45%.

`COC(=O)[C@H](COC(C)(C)C)N(C)C(=O)CC[C@@H](C1CCCCC1)N1Cc2cc(Oc3ccccc3)ncc2N=C1N` [Compound 65]: the IC50 was determined as 110 nM. In addition, the inhibition at 0.3 µM under setting [2] worked out at 91%. Take `NC1=Nc2cnc(Oc3ccccc3)cc2CN1[C@@H](CCC(=O)N1CCC(c2ccccc2)CC1)C1CCCCC1` [Compound 149]: the IC50 was determined as 740 nM. Moreover, the inhibition at 1 µM under setting [1] amounted to 66%.

For the compound `COC(=O)[C@H](COC(C)(C)C)NC(=O)CC[C@@H](C(C)C)N1Cc2cc(Oc3ccccc3)ncc2N=C1N` [Compound 69], the IC50 was determined as 340 nM. For the same compound, the inhibition at 0.3 µM under setting [2] was 57%. For the compound `CC(C)(C)c1cn(C[C@@H](C2CCCCC2)N2Cc3cc(Oc4ccccc4)ncc3N=C2NO)nn1` [Compound 246, N-{3-[2-(4-tert-Butyl-[1,2,3]triazol-1-yl)-1-(R)-cyclohexyl-ethyl]-6-phenoxy-3,4-dihydro-pyrido[3,4-d]pyrimidin-2-yl}-hydroxylamine], the inhibition at 10 µM (10.0 μM, percent inhibition of the control activity) was found to be 94%.

As to `CC(C)(C)CCN(CCNS(N)(=O)=O)C(=O)CC[C@@H](C1CCCCC1)N1Cc2cc(Oc3ccccc3)ncc2N=C1N` [Compound 147, 4-(2-Amino-6-phenoxy-4H-pyrido[3,4-d]pyrimidin-3-yl)-4-(S)-cyclohexyl-N-(3,3-dimethyl-butyl)-N-(2-sulfamido-ethyl)-butyramide], the IC50 came out at 180 nM. In addition, under setting [1], the inhibition at 1 µM was found to be 100%. The like results for `CC(C)[C@H](CCC(=O)N[C@H](C)CO)N1Cc2cc(Oc3ccccc3)ncc2N=C1N` [Compound 175] were, in that order, 97 nM and 93%.

In the case of `CC(C)(C)c1cn(CC[C@@H](C2CCCCC2)N2Cc3cc(Oc4ccccc4)ncc3N=C2N)nn1` [Compound 199], the IC50 came out at 86 nM. Under setting [1], the inhibition at 1 µM amounted to 100%.

Consider `CC(C)(C)OC[C@H](CO)NC(=O)CC[C@@H](C1CCCCC1)N1Cc2cc(Oc3ccccc3)ccc2N=C1N` [Compound 107, 4-(2-Amino-6-phenoxy-4H-quinazolin-3-yl)-N-(1-(S)-tert-butoxymethyl-2-hydroxy-ethyl)-4-(S)-cyclohexyl-butyramide], for which, under setting [2], the inhibition at 0.3 µM stood at 87%.

As to `CC(C)[C@H](CCC(=O)N[C@H](COC(C)(C)C)C(=O)O)N1Cc2cc(Oc3ccccc3)ncc2N=C1N` [Compound 88], the IC50 came out at 100 nM. The inhibition at 0.3 µM under setting [2] came to 98%. Take `NC1=Nc2cnc(Oc3ccccc3)cc2CN1[C@@H](CCCNC[C@H]1CCCO1)C1CCCCC1` [Compound 211]: the IC50 is 160 nM. Further, the inhibition at 1 µM under setting [1] came out at 88%.

Consider `CN(CCc1ccccc1)C(=O)CC[C@@H](C1CCCCC1)N1Cc2cc(Oc3ccccc3)ncc2N=C1N` [Compound 122, 4-(2-Amino-6-phenoxy-4H-pyrido[3,4-d]pyrimidin-3-yl)-4-(S)-cyclohexyl-N-methyl-N-phenethyl-butyramide], for which the inhibition at 1 µM under setting [1] was 97%.

As to `Cc1nc([C@H](COC(C)(C)C)NC(=O)CC[C@@H](C2CCCCC2)N2Cc3cc(Oc4ccccc4)ncc3N=C2N)no1` [Compound 110], the IC50 was determined as 62 nM. Further, the inhibition at 1 µM under setting [1] was 90%. In the case of `CC(C)(C)OC[C@H](NC(=O)CC[C@@H](C1CCCCC1)N1Cc2cc(Oc3ccccc3)ncc2N=C1N)C(=O)O` [Compound 62], the IC50 is 250 nM. For the same compound, the inhibition at 0.3 µM under setting [2] was determined as 65%. With `CCOCCCNC(=O)CC[C@@H](C1CCCCC1)N1Cc2cc(Oc3ccccc3)ncc2N=C1N` [Compound 173], the IC50 stood at 130 nM. Besides, under setting [1], the inhibition at 1 µM came to 92%.

On to `COC(=O)[C@@H](COCc1ccccc1)NC(=O)CC[C@@H](C(C)C)N1Cc2cc(Oc3ccccc3)ncc2N=C1N` [Compound 53], for which the IC50 came out at 140 nM. Further, the inhibition at 0.3 µM under setting [2] worked out at 95%. As to `CC(C)[C@H](C(=O)N(C)CCc1ccccc1)N1Cc2cc(Oc3ccccc3)ncc2N=C1N` [Compound 221, 2-(2-Amino-6-phenoxy-4H-pyrido[3,4-d]pyrimidin-3-yl)-3,N-dimethyl-N-phenethyl-butyramide hydrochloride salt (R enantiomer)], the IC50 was 980 nM. For the same compound, under setting [1], the inhibition at 1 µM turned out to be 52%. Turning to `COCC(=O)NC1=Nc2cnc(Oc3ccccc3)cc2CN1C(Cn1cc(C(C)(C)C)nn1)C1CCCCC1` (stereo in doubt) [Compound 247, N-{3-[2-(4-tert-Butyl-[1,2,3]triazol-1-yl)-1-(S)-cyclohexyl-ethyl]-6-phenoxy-3,4-dihydro-pyrido[3,4-d]pyrimidin-2-yl}-2-methoxy-acetamide], the inhibition at 1 µM under setting [1] amounted to 3%. With `CC(C)[C@H](CCC(=O)N[C@H](COC(C)(C)C)C(=O)N1CCCCC1)N1Cc2cc(Oc3ccccc3)ncc2N=C1N` [Compound 98], the IC50 was 150 nM. In addition, the inhibition at 0.3 µM under setting [2] stood at 72%. Take `NC1=Nc2cnc(Oc3ccccc3)cc2CN1[C@@H](CCn1cc(C2CCCCC2)nn1)C1CCCCC1` [Compound 198, 3-[—(S)-cyclohexyl-3-(4-cyclohexyl-[1,2,3]triazol-1-yl)-propyl]-6-phenoxy-3,4-dihydro-pyrido[3,4-d]pyrimidin-2-ylamine]: the IC50 is 140 nM. Further, the inhibition at 1 µM under setting [1] is 95%. With `CC(C)(C)OCCNC(=O)CC[C@@H](C1CCCCC1)N1Cc2cc(Oc3ccccc3)ncc2N=C1N` [Compound 181], the IC50 worked out at 85 nM. Also, the inhibition at 1 µM under setting [1] was determined as 96%.

For the compound `NC1=Nc2cnc(Oc3ccccc3)cc2CN1[C@@H](CCC(=O)N(Cc1nnc[nH]1)C1CCCCC1)C1CCCCC1` [Compound 80, 4-(2-Amino-6-phenoxy-4H-pyrido[3,4-d]pyrimidin-3-yl)-4-(S),N-dicyclohexyl-N-(4H-[1,2,4]triazol-3-ylmethyl)-butyramide], the IC50 was determined as 170 nM. In addition, under setting [2], the inhibition at 0.3 µM came out at 97%. Turning to `CC(C)(C)CCN(CCNC(=O)OC(C)(C)C)C(=O)CC[C@@H](C1CCCCC1)N1Cc2cc(Oc3ccccc3)ncc2N=C1N` [Compound 145], the half-inhibitory concentration (IC50) is 57 nM. Also, the inhibition at 1 µM under setting [1] was 99%. Regarding `NC1=Nc2cnc(Oc3ccccc3)cc2CN1[C@@H](CCC(=O)N1CCCC[C@H]1CC(=O)O)C1CCCCC1` [Compound 93], the IC50 is 110 nM. Under setting [2], the inhibition at 0.3 µM worked out at 94%. Take `C[C@@H](O)[C@H](CCC(=O)NCC(C)(C)C)N1Cc2cc(Oc3ccccc3)ncc2N=C1N` [Compound 186, 4-(S)-(2-Amino-6-phenoxy-4H-pyrido[3,4-d]pyrimidin-3-yl)-5-(R)-hydroxy-hexanoic acid (2,2-dimethyl-propyl)-amide]: the IC50 was 190 nM. Under setting [1], the inhibition at 1 µM was determined as 81%. With `CC(C)OC(=O)[C@@H](COC(C)(C)C)NC(=O)CC[C@@H](C1CCCCC1)N1Cc2cc(Oc3ccccc3)ncc2N=C1N` [Compound 140, 2-[4-(2-Amino-6-phenoxy-4H-pyrido[3,4-d]pyrimidin-3-yl)-4-cyclohexyl-butyrylamino]-3-tert-butoxy-propionic acid isopropyl ester], the IC50 is 150 nM. The inhibition at 1 µM under setting [1] amounted to 98%. The like results for `CC(C)[C@H](CCC(=O)OCc1ccccc1)N1Cc2cc(Oc3ccccc3)ncc2N=C1N` [Compound 231, 4-(2-Amino-6-phenoxy-4H-pyrido[3,4-d]pyrimidin-3-yl)-5-methyl-hexanoic acid benzyl ester] were, in that order, 130 nM and 97%. As for `CC(CO)NC(=O)C(COC(C)(C)C)NC(=O)CCC(C1CCCCC1)N1Cc2cc(Oc3ccccc3)ncc2N=C1N` (stereo not drawn) [Compound 109], the IC50 was determined as 120 nM. Besides, the inhibition at 0.3 µM under setting [2] came out at 95%. The like results for `COC(=O)[C@@H](COC(C)(C)C)NC(=O)CC[C@@H](C1CCCCC1)N1Cc2cc(Oc3ccccc3)ncc2N=C1N` [Compound 63, 2-[4-(2-Amino-6-phenoxy-4H-pyrido[3,4-d]pyrimidin-3-yl)-4-(S)-cyclohexyl-butyryl-(R)-amino]-3-tert-butoxy-propionic acid methyl ester] were, in that order, 190 nM and 94%. On to `NC1=Nc2cnc(Oc3ccccc3)cc2CN1[C@@H](CCC(=O)NCCN1CCOCC1)C1CCCCC1` [Compound 116], for which the IC50 came out at 630 nM. The inhibition at 1 µM under setting [1] was found to be 54%. Turning to `CC(C)(C)CCNC(=O)C[C@@H](C1CCCCC1)N1Cc2cc(Oc3ccccc3)ncc2N=C1N` [Compound 202, 3-(2-Amino-6-phenoxy-4H-pyrido[3,4-d]pyrimidin-3-yl)-3(S)-cyclohexyl-N-(3,3-dimethyl-butyl)-propionamide hydrochloride salt], the IC50 worked out at 220 nM. Moreover, where the note is “1.0 μM, percent inhibition of the control activity, hydrochloride salt”, the “% Inhibition @ 1.0 μM” value was 73%. The inhibition at 1 µM under setting [1] was determined as 88%. Turning to `CC(C)(C)c1cn(C[C@@H](C2CCCCC2)N2Cc3cc(Oc4ccccc4)ncc3N=C2N)nn1` [Compound 152, 3-[2-(4-tert-Butyl-[1,2,3]triazol-1-yl)-1-(R)-cyclohexyl-ethyl]-6-phenoxy-3,4-dihydro-pyrido[3,4-d]pyrimidin-2-ylamine], the IC50 amounted to 88 nM. Also, the inhibition at 1 µM under setting [1] amounted to 99%. The like results for `C[C@@H](CO)N(CCC(C)(C)C)C(=O)CC[C@@H](C1CCCCC1)N1Cc2cc(Oc3ccccc3)ncc2N=C1N` [Compound 139] were, in that order, 200 nM and 94%.
